Laboratory results as given in ChEMBL document CHEMBL1909046, “DrugMatrix in vitro pharmacology data”.
pIC50, pKi: −log10 of the molar value.

Columns and labels:
[1] = DRUGMATRIX: Interleukin IL-1 radioligand binding (ligand: [125I] interleukin 1beta); type: cell membranes, Membrane; conditions: nih3t3; Not Active = under 50% inhibition at 10 µM
[2] = molecular target: T1, Neuropeptide Y receptor type 1 (Homo sapiens, UniProt P25929); type: cell membranes, Membrane; conditions: sk-n-mc; further: in other assays of this panel Not Active means under 50% inhibition at 10 µM
T1 sequence (P25929 whole entry): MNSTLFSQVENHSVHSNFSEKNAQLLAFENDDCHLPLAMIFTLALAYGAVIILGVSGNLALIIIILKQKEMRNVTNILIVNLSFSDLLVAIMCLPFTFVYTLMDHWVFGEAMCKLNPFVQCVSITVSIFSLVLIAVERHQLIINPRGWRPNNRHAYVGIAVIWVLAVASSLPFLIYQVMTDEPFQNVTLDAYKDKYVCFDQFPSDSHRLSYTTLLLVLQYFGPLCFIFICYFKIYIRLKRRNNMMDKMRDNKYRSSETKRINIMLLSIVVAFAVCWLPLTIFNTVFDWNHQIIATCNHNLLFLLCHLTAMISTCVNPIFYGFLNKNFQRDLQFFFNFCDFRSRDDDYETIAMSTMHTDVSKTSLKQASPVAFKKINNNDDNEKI

[3] = molecular target: Nitric oxide synthase 1 (Rattus norvegicus, UniProt P29476); type: tissue-based, Cerebellum; further: in other assays of this panel Not Active means under 50% inhibition at 10 µM
[4] = molecular target: Protein phosphatase 3 catalytic subunit alpha (Homo sapiens, UniProt Q08209); set-up: species or system Escherichia coli;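 further: inhibition of calcineurin (PP2B) enzyme activity, measured with DiFMUP as the substrate; in other assays of this panel Not Active means under 50% inhibition at 10 µM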
[5] = molecular target: Receptor tyrosine-protein kinase erbB-2 (Homo sapiens, UniProt P04626); assay: biochemical; type: cell-based, Insect cells; conditions: for IC50: insect cells;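 on all read-outs here: inhibition of HER2 kinase enzyme activity, measured with Poly(Glu:Tyr) as the phosphorylation substrate; in other assays of this panel Not Active means under 50% inhibition at 10 µM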
[6] = molecular target: T2, Adenosine receptor A1 (Homo sapiens, UniProt P30542); type: cell membranes, CHO, Membrane; conditions: for IC50: cho
T2 sequence (P30542 whole entry): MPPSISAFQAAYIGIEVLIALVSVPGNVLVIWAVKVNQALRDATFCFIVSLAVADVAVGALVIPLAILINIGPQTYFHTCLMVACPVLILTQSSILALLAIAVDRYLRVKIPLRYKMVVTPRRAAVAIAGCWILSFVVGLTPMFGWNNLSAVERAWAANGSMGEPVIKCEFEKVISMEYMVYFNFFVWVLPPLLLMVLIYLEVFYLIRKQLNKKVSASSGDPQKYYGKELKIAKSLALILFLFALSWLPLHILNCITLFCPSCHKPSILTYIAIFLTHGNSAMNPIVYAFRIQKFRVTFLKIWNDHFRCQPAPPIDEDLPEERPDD

[7] = molecular target: T3, Adenosine receptor A3 (Homo sapiens, UniProt P0DMS8); type: cell membranes, CHO-K1, Membrane; conditions: for IC50: cho-k1
T3 sequence (P0DMS8 whole entry): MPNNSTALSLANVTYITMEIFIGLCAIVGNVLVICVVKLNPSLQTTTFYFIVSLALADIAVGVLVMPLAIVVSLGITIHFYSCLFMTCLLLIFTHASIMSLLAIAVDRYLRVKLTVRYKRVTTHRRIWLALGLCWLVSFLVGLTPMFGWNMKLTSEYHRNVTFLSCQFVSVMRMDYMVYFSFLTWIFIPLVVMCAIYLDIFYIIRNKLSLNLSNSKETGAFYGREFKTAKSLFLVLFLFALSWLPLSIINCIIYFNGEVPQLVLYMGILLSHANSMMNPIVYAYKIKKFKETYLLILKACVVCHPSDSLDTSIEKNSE

Nitric oxide synthase 1, sequence (P29476 whole entry): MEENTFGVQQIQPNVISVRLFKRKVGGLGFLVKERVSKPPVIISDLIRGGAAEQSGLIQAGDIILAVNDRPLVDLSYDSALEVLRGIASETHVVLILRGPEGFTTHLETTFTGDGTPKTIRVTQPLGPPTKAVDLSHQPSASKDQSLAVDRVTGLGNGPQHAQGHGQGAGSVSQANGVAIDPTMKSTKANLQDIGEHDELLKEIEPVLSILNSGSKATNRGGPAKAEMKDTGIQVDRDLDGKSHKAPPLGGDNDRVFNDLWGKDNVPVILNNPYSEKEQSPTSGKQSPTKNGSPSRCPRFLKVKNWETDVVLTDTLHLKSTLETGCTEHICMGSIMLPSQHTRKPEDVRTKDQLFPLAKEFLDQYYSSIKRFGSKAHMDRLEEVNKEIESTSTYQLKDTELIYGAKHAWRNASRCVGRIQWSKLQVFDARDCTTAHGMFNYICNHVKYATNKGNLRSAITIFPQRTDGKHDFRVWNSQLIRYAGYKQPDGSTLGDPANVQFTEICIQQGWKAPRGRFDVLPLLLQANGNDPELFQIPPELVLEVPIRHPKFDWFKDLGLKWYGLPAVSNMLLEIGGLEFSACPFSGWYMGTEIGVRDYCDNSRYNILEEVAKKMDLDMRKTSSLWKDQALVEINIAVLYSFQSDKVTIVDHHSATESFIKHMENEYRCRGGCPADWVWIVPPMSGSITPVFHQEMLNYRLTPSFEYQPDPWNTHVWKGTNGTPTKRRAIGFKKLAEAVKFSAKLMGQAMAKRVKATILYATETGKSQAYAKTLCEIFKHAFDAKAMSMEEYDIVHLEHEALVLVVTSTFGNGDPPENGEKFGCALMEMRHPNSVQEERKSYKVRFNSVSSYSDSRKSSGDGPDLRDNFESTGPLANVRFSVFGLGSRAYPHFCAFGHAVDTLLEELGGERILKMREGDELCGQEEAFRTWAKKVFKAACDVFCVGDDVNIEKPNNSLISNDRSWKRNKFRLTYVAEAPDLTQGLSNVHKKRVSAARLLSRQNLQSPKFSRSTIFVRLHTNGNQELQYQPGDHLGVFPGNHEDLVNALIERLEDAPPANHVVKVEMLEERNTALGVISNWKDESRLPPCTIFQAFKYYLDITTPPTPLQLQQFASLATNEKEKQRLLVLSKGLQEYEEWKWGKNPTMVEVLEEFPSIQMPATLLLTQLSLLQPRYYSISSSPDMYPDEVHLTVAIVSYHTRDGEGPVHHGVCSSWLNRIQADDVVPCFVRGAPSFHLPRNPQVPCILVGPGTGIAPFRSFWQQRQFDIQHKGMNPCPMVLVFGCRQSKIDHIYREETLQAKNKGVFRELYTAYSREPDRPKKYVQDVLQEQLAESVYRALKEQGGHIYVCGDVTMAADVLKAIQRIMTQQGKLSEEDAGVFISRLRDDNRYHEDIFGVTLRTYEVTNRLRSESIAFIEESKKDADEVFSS
Receptor tyrosine-protein kinase erbB-2, sequence (P04626 whole entry): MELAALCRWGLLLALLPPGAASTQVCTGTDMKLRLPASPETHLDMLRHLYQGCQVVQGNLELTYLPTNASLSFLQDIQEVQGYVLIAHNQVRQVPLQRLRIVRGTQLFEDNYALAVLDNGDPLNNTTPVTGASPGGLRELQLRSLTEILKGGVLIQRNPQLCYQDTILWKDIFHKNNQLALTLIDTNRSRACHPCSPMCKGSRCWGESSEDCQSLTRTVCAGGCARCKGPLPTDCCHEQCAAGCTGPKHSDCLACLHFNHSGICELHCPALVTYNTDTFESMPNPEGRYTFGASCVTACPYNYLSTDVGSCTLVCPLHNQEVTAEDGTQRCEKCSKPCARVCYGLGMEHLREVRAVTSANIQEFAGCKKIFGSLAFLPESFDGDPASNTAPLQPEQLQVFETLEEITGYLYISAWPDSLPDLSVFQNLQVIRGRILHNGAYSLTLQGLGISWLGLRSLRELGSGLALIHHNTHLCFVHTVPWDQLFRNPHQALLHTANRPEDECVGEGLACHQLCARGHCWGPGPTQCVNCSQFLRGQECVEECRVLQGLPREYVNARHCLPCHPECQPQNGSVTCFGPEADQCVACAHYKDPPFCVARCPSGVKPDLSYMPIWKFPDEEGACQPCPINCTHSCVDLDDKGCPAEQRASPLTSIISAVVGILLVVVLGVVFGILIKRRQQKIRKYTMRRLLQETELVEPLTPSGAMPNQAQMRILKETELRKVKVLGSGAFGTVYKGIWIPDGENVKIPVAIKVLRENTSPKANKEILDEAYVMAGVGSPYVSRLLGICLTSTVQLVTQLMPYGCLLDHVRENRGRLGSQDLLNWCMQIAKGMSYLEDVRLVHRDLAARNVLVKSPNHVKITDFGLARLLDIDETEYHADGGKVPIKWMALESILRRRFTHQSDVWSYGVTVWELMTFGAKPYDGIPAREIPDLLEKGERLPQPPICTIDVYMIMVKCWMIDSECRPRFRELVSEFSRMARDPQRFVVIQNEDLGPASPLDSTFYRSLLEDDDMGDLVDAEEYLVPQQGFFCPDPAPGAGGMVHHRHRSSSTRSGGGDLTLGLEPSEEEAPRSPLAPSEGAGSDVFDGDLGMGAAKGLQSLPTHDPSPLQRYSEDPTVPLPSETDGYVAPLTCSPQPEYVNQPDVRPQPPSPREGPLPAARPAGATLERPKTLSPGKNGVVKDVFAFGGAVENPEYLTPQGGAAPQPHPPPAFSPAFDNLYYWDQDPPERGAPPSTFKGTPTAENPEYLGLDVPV

SMILES | IC50 [1] | Ki [1] | IC50 [2] | IC50 [3] | IC50 [4] | IC50 [5] | pIC50 ([6]; read-out: IC50) | pKi ([6]; read-out: Ki) | IC50 [7] | IC50 [6] | pIC50 ([5]; read-out: IC50) | pIC50 ([7]; read-out: IC50) | pKi ([7]; read-out: Ki)
CC[C@H](C)C(=O)O[C@H]1C[C@@H](C)C=C2C=C[C@H](C)[C@H](CC[C@@H]3C[C@@H](O)CC(=O)O3)[C@H]21 [LOVASTATIN] | Not Active | Not Active | Not Active | Not Active | Not Active | Not Active | 4.57 | 4.81 | Not Active | – | – | – | –
O=C(c1ccccc1Cl)N1CCC(Cc2ccccc2)CC1 | Not Active | Not Active | Not Active | Not Active | Not Active | Not Active | – | – | Not Active | Not Active | – | – | –
CCOC(=O)[C@H](CCc1ccccc1)N[C@@H](C)C(=O)N1Cc2ccccc2C[C@H]1C(=O)O | Not Active | Not Active | Not Active | Not Active | Not Active | Not Active | – | – | Not Active | Not Active | – | – | –
CC[C@H]1OC(=O)[C@H](C)[C@@H](O[C@H]2C[C@@](C)(OC)[C@@H](O)[C@H](C)O2)[C@H](C)[C@@H](O[C@@H]2O[C@H](C)C[C@H](N(C)C)[C@H]2O)[C@](C)(O)C[C@@H](C)CN(C)[C@H](C)[C@@H](O)[C@]1(C)O [AZITHROMYCIN] | Not Active | Not Active | Not Active | Not Active | Not Active | Not Active | – | – | Not Active | Not Active | – | – | –
Cc1cccc(Nc2ccccc2C(=O)O)c1C [MEFENAMIC ACID] | Not Active | Not Active | Not Active | Not Active | Not Active | Not Active | – | – | Not Active | Not Active | – | – | –
COC(=O)c1ccccc1O [METHYL SALICYLATE] | Not Active | Not Active | Not Active | Not Active | Not Active | Not Active | – | – | Not Active | Not Active | – | – | –
CC[C@H](C)C(=O)O[C@H]1C[C@H](O)C=C2C=C[C@H](C)[C@H](CC[C@@H](O)C[C@@H](O)CC(=O)O)[C@H]21 [PRAVASTATIN] | Not Active | Not Active | Not Active | Not Active | Not Active | Not Active | – | – | Not Active | Not Active | – | – | –
N[C@@H](Cc1ccc(F)cc1)C(=O)O | Not Active | Not Active | Not Active | Not Active | Not Active | Not Active | – | – | Not Active | Not Active | – | – | –
C[C@]12C/C(=C/O)C(=O)C[C@@H]1CC[C@@H]1[C@@H]2CC[C@@]2(C)[C@H]1CC[C@]2(C)O [OXYMETHOLONE] | Not Active | Not Active | Not Active | Not Active | Not Active | Not Active | – | – | Not Active | Not Active | – | – | –
Clc1cc2c(cc1Cl)Oc1cc(Cl)c(Cl)cc1O2 [2,3,7,8-TETRACHLORODIBENZO-P-DIOXIN] | Not Active | Not Active | Not Active | Not Active | Not Active | Not Active | – | – | Not Active | Not Active | – | – | –
OCCO [ETHYLENE GLYCOL] | Not Active | Not Active | Not Active | Not Active | Not Active | Not Active | – | – | Not Active | Not Active | – | – | –
NC[C@H]1O[C@H](O[C@H]2[C@H](O)[C@@H](O[C@H]3O[C@H](CO)[C@@H](O)[C@H](N)[C@H]3O)[C@H](N)C[C@@H]2N)[C@H](O)[C@@H](O)[C@@H]1O [KANAMYCIN] | Not Active | Not Active | Not Active | Not Active | Not Active | Not Active | – | – | Not Active | Not Active | – | – | –
O=C(/C=C/c1ccc(O)c(O)c1)OCCc1ccccc1 [CAFFEIC ACID PHENETHYL ESTER] | Not Active | Not Active | Not Active | Not Active | Not Active | – | – | – | Not Active | Not Active | 5.88 | – | –
NC[C@@H]1O[C@H](O[C@H]2[C@@H](O)[C@H](O[C@@H]3[C@@H](O)[C@H](N)C[C@H](N)[C@H]3O[C@H]3O[C@H](CN)[C@@H](O)[C@H](O)[C@H]3N)O[C@@H]2CO)[C@H](N)[C@@H](O)[C@@H]1O [FRAMYCETIN] | Not Active | Not Active | Not Active | Not Active | Not Active | Not Active | – | – | Not Active | Not Active | – | – | –
CCCCCC[C@H]1C(=O)O[C@H](C)[C@H](NC(=O)c2cccc(NC=O)c2O)C(=O)O[C@@H](C)[C@@H]1OC(=O)CC(C)C [ANTIMYCIN A] | Not Active | Not Active | Not Active | Not Active | Not Active | Not Active | – | – | Not Active | Not Active | – | – | –
Oc1ccccc1O [CATECHOL] | Not Active | Not Active | Not Active | Not Active | Not Active | Not Active | – | – | Not Active | Not Active | – | – | –
Cc1c(F)c(N2CCNC(C)C2)cc2c1c(=O)c(C(=O)O)cn2C1CC1 (stereo not given) [GREPAFLOXACIN] | Not Active | Not Active | Not Active | Not Active | Not Active | Not Active | – | – | Not Active | Not Active | – | – | –
[N-]=[N+]=CC(=O)OC[C@H](N)C(=O)O [AZASERINE] | Not Active | Not Active | Not Active | Not Active | Not Active | Not Active | – | – | Not Active | Not Active | – | – | –
C#C[C@]1(O)CC[C@H]2[C@@H]3CCC4=Cc5oncc5C[C@]4(C)[C@H]3CC[C@@]21C [DANAZOL] | Not Active | Not Active | Not Active | Not Active | Not Active | Not Active | – | – | – | Not Active | – | 4.95 | 5.20
CO[C@H]1[C@@H](O)[C@H](N)[C@@H](O[C@H]2O[C@H]([C@H](C)N)CC[C@H]2N)[C@H](O)[C@@H]1N(C)C(=O)CN [ASTROMICIN] | Not Active | Not Active | Not Active | Not Active | Not Active | Not Active | – | – | Not Active | Not Active | – | – | –
COc1ccc2cc(CCC(C)=O)ccc2c1 [NABUMETONE] | Not Active | Not Active | Not Active | Not Active | Not Active | Not Active | – | – | Not Active | Not Active | – | – | –
N=C(N)N/N=C/c1c(Cl)cccc1Cl [GUANABENZ] | Not Active | Not Active | Not Active | Not Active | Not Active | Not Active | – | – | Not Active | Not Active | – | – | –
NC(=O)N1c2ccccc2C=Cc2ccccc21 [CARBAMAZEPINE] | Not Active | Not Active | Not Active | Not Active | Not Active | Not Active | – | – | Not Active | Not Active | – | – | –
Cc1c(N(C)CS(=O)(=O)[O-])c(=O)n(-c2ccccc2)n1C.[Na+] [DIPYRONE SODIUM] | Not Active | Not Active | Not Active | Not Active | Not Active | Not Active | – | – | Not Active | Not Active | – | – | –
OCCN1CCN(CCCN2c3ccccc3Sc3ccc(Cl)cc32)CC1 [PERPHENAZINE] | Not Active | Not Active | Not Active | Not Active | Not Active | Not Active | – | – | Not Active | Not Active | – | – | –
CC[C@]1(O)CC[C@H]2[C@@H]3CCC4=CCCC[C@@H]4[C@H]3CC[C@@]21C | Not Active | Not Active | Not Active | Not Active | Not Active | Not Active | – | – | Not Active | Not Active | – | – | –
